Experimental data taken from the supplement of paper PMC11451515.

Columns and labels:
Settings in all cases: 48 h
NOMO1 [1] = assay: cell viability relative to DMSO control; higher = less cytotoxic
Procedure, shortened: (§1)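 In 1536-well plates, 5 μl of leukemia cells were seeded per well: 500 cells/well for NOMO1 or SEM and 1000 cells/well for P12-Ichikawa. Each line had first been adapted for at least four passages in each medium. Library compounds in DMSO were pin-dosed at 11 threefold concentrations between 47 μM and 0.79 nM, and CellTiter-Glo One luminescence was read after 48 h at 37°C. Viability is a per-plate percentage relative to DMSO wells, with cell-free wells as background.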

P12-Ichikawa [2] = assay: as above
Procedure, shortened: as §1

SEM cells [3] = assay: as above
Procedure, shortened: as §1

NOMO1 [4] = assay: AUC of viability dose-response curve (% viability x log10 dose units); higher = less sensitive
Procedure, shortened: (§2)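 Over 48 h at 37°C, leukemia cells in 1536-well plates (500 or 1000 cells/well), adapted to each medium, received library compounds in DMSO at 11 threefold doses from 47 μM to 0.79 nM. CellTiter-Glo One luminescence, normalised per plate to DMSO and cell-free wells, was fitted by a four-parameter log-logistic function of log10 dose. The area under the curve was then integrated by trapezoidal rule, after scaling curves above full viability and removing those that failed quality control.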

P12-Ichikawa [5] = assay: as above
Procedure, shortened: as §2

SEM cells [6] = assay: as above
Procedure, shortened: as §2

Oc1ccc(/C=C/c2cc(O)cc(O)c2)cc1
cell viability [%]
Settings | NOMO1 [1] | P12-Ichikawa [2] | SEM cells [3]
HPLM + 10% dialyzed FBS, 0.000781 µM | 108 | 111 | 99.5
HPLM + 10% dialyzed FBS, 0.00234 µM | 112 | 110 | 113
HPLM + 10% dialyzed FBS, 0.00702 µM | 115 | 110 | 106
HPLM + 10% dialyzed FBS, 0.0211 µM | 111 | 114 | 104
HPLM + 10% dialyzed FBS, 0.0632 µM | 107 | 105 | 115
HPLM + 10% dialyzed FBS, 0.19 µM | 114 | 111 | 110
HPLM + 10% dialyzed FBS, 0.569 µM | 92.4 | 115 | 112
HPLM + 10% dialyzed FBS, 1.71 µM | 117 | 103 | 121
HPLM + 10% dialyzed FBS, 5.12 µM | 97.5 | 105 | 118
HPLM + 10% dialyzed FBS, 15.4 µM | 50.1 | 108 | 97.6
HPLM + 10% dialyzed FBS, 46.1 µM | 10.4 | 41.4 | 10.4
RPMI 5 mM glucose + 10% FBS, 0.000781 µM | 109 | 116 | 105
RPMI 5 mM glucose + 10% FBS, 0.00234 µM | 98.8 | 118 | 107
RPMI 5 mM glucose + 10% FBS, 0.00702 µM | 111 | 116 | 85.6
RPMI 5 mM glucose + 10% FBS, 0.0211 µM | 105 | 118 | 100
RPMI 5 mM glucose + 10% FBS, 0.0632 µM | 98 | 118 | 103
RPMI 5 mM glucose + 10% FBS, 0.19 µM | 102 | 112 | 108
RPMI 5 mM glucose + 10% FBS, 0.569 µM | 99.8 | 117 | 111
RPMI 5 mM glucose + 10% FBS, 1.71 µM | 107 | 106 | 94.9
RPMI 5 mM glucose + 10% FBS, 5.12 µM | 95.3 | 111 | 101
RPMI 5 mM glucose + 10% FBS, 15.4 µM | 103 | 101 | 22.7
RPMI 5 mM glucose + 10% FBS, 46.1 µM | 15.1 | 58.6 | 5.07
RPMI 5 mM glucose + 10% dialyzed FBS, 0.000781 µM | 89.7 | 108 | 114
RPMI 5 mM glucose + 10% dialyzed FBS, 0.00234 µM | 106 | 111 | 115
RPMI 5 mM glucose + 10% dialyzed FBS, 0.00702 µM | 98.1 | 111 | 97.2
RPMI 5 mM glucose + 10% dialyzed FBS, 0.0211 µM | 104 | 112 | 98.4
RPMI 5 mM glucose + 10% dialyzed FBS, 0.0632 µM | 103 | 113 | 100
RPMI 5 mM glucose + 10% dialyzed FBS, 0.19 µM | 105 | 116 | 92.8
RPMI 5 mM glucose + 10% dialyzed FBS, 0.569 µM | 99.2 | 121 | 103
RPMI 5 mM glucose + 10% dialyzed FBS, 1.71 µM | 97.4 | 108 | 103
RPMI 5 mM glucose + 10% dialyzed FBS, 5.12 µM | 102 | 103 | 111
RPMI 5 mM glucose + 10% dialyzed FBS, 15.4 µM | 83.4 | 84.5 | 73.7
RPMI 5 mM glucose + 10% dialyzed FBS, 46.1 µM | 18.4 | 36.9 | 7.98

AUC of viability dose-response curve
Settings | NOMO1 [4] | P12-Ichikawa [5] | SEM cells [6]
HPLM + 10% dialyzed FBS | 425 | 462 | 450
RPMI 5 mM glucose + 10% FBS | 457 | 457 | 417
RPMI 5 mM glucose + 10% dialyzed FBS | 450 | 444 | 441

ClC1=CC(=CC=C1)N2CCN(CCCN3\N=C4\C=C/C=C\N4C3=O)CC2
cell viability [%]
Settings | NOMO1 [1] | P12-Ichikawa [2] | SEM cells [3]
HPLM + 10% dialyzed FBS, 0.000781 µM | – | 118 | 79.3
HPLM + 10% dialyzed FBS, 0.00234 µM | – | 120 | 107
HPLM + 10% dialyzed FBS, 0.00702 µM | – | 120 | 107
HPLM + 10% dialyzed FBS, 0.0211 µM | – | 134 | 112
HPLM + 10% dialyzed FBS, 0.0632 µM | – | 128 | 121
HPLM + 10% dialyzed FBS, 0.19 µM | – | 132 | 130
HPLM + 10% dialyzed FBS, 0.569 µM | – | 134 | 127
HPLM + 10% dialyzed FBS, 1.71 µM | – | 142 | 131
HPLM + 10% dialyzed FBS, 5.12 µM | – | 140 | 140
HPLM + 10% dialyzed FBS, 15.4 µM | – | 134 | 131
HPLM + 10% dialyzed FBS, 46.1 µM | – | 139 | 145
RPMI 5 mM glucose + 10% FBS, 0.000781 µM | 113 | – | 117
RPMI 5 mM glucose + 10% FBS, 0.00234 µM | 121 | – | 126
RPMI 5 mM glucose + 10% FBS, 0.00702 µM | 123 | – | 123
RPMI 5 mM glucose + 10% FBS, 0.0211 µM | 137 | – | 138
RPMI 5 mM glucose + 10% FBS, 0.0632 µM | 126 | – | 140
RPMI 5 mM glucose + 10% FBS, 0.19 µM | 137 | – | 138
RPMI 5 mM glucose + 10% FBS, 0.569 µM | 142 | – | 146
RPMI 5 mM glucose + 10% FBS, 1.71 µM | 147 | – | 157
RPMI 5 mM glucose + 10% FBS, 5.12 µM | 137 | – | 150
RPMI 5 mM glucose + 10% FBS, 15.4 µM | 141 | – | 165
RPMI 5 mM glucose + 10% FBS, 46.1 µM | 137 | – | 127

AUC of viability dose-response curve
Settings | NOMO1 [4] | P12-Ichikawa [5] | SEM cells [6]
HPLM + 10% dialyzed FBS | 465 | 453 | 419
RPMI 5 mM glucose + 10% FBS | 453 | 473 | 446
RPMI 5 mM glucose + 10% dialyzed FBS | 451 | 468 | 464
